In paper PMC12676205, “New Se‐Compounds With Antileishmanial, Antitumor, and Carbonic Anhydrase Inhibitory Properties” (Archiv Der Pharmazie, 2025):
Where two headings read alike, the source gives them in different places.

What was measured:
Colon subpanel = experiment: NCI-60 five-dose assay, colon subpanel; format: cell-based; details: Homo sapiens, 48 h; for GI50: read-out: Mean GI50 Colon; for CC50: read-out: Mean LC50 Colon
Experimental: (§1) All the compounds were selected for further testing since they fulfilled the set NCI one‐dose screening parameters for threshold inhibition. They were tested at five different concentrations (0.01, 0.1, 1, 10, and 100 μM) for 48 h against the same cell line panel and the dose–response curves along with three response parameters (50% growth inhibitory concentration [GI50], the 50% lethal concentration [LC50], and the total growth inhibition [TGI]) were calculated for every cancer cell line. The full reported data and corresponding graphs are compiled in Supporting Information S1. Average values of GI50, TGI, and LC50 values of all the reported selenoesters in all the subpanels are represented in Figure 4.
(§2) All the reported selenoesters (1–6) were submitted to the DTP of NCI. First, they were screened at a single dose (10^−5 M) against a panel of 60 cancer cell lines derived from different tumor types following the methodology available (https://dtp.cancer.gov/discovery_development/nci-60/methodology.htm). As all the compounds satisfied the threshold inhibition criteria established, they were further assessed at five concentrations (0.01, 0.1, 1, 10, and 100 µM) against the same cell panel to obtain their corresponding dose–response curves and three antitumor parameters (GI50, TGI, and LC50) by regression. GraphPad Prism 7.0 Software was used to represent the corresponding graphs.

Renal subpanel [1] = experiment: NCI-60 one-dose screen, renal subpanel; format: cell-based, human; details: 10 µM, 48 h
Experimental: (§3) To explore the potential antiproliferative properties of the newly synthesized derivatives, they were submitted to the National Cancer Institute's (NCI) Developmental Therapeutics Program (DTP) for screening at 10 μM in a panel of approximately 60 human cancer cell lines from different cancer types. The results are reported as the growth percentage (GP), which is the growth of the treated cells with each compound for 48 h compared to the untreated controls (Figure 2). […] The initial screening results are summarized in Figure 2, and the mean GP values of each subpanel are depicted in Figure 3. The full reports are compiled in the Supplementary Section.
as §2

Ovarian subpanel [2] = experiment: NCI-60 one-dose screen, ovarian subpanel; format: cell-based, human; details: 10 µM, 48 h
Experimental: as §3, §2

HaCaT cells = experiment: MTS cell viability assay in nonmalignant HaCaT cells; format: cell-based, human; details: 48 h, mean ± SD
Experimental: (MTS) assay as previously described. Thus, the selenoesters were tested at seven different concentrations (1, 2.5, 5, 10, 25, 50, and 100 µM) during 48 h to determine their corresponding IC50 values.
The effect of each compound on the cell viability of HaCaT cells was tested using the MTS assay. The compounds (1–6) were dissolved in DMSO at a concentration of 10^−2 M, and serial dilutions were prepared. Briefly, the cells were seeded in a 96‐well plate at a density of 1 × 10^4 cells per well. After 24 h of incubation, the cells were treated with either DMSO or seven different concentrations of each selenoester (1, 2.5, 5, 10, 25, 50, and 100 µM) for 48 h in triplicate. At the end of the treatment duration, the media were removed and fresh media were added containing 20 μL of MTS (Promega, USA) per well. After 1 h incubation, the absorbances were read at a wavelength of 490 nm in a 96‐well multiscanner, and the ratio of viable cells was calculated. Data were obtained from at least three independent experiments performed in triplicate. The IC50 values were calculated using OriginPro 8.5.1 Software for nonlinear curve fitting, and Graphpad Prism 7.0 Software was used to represent the corresponding graphs.

Breast subpanel = experiment: NCI-60 one-dose screen, breast subpanel; format: cell-based, human; details: 10 µM, 48 h
Experimental: as §3, §2

[3] = tested on: NSCL (non‐small‐cell lung cancer) subpanel; experiment: NCI-60 one-dose screen, NSCL subpanel; format: cell-based, human; details: 10 µM, 48 h
Experimental: as §3, §2

OVCAR‐5 = experiment: NCI-60 one-dose screen, OVCAR-5; format: cell-based, human; details: 10 µM, 48 h
Experimental: as §3, §2

Renal subpanel [4] = experiment: NCI-60 five-dose assay, renal subpanel; format: cell-based; details: Homo sapiens, 48 h; for GI50: read-out: Mean GI50 Renal; for LC50: read-out: Mean LC50 Renal
Experimental: as §1, §2

CNS subpanel = experiment: NCI-60 one-dose screen, CNS subpanel; format: cell-based, human; details: 10 µM, 48 h
Experimental: as §3, §2

[5] = tested on: L. infantum promastigotes; experiment: Leishmanicidal activity against promastigotes (MTT), L. infantum; format: cell-based, Leishmania infantum
Experimental: The synthesized compounds were tested for their antileishmanial activity against promastigotes of L. major and L. infantum at four concentrations (1, 10, 50, and 100 µM) for 48 h using the 3‐(4,5‐dimethylthiazol‐2‐yl)‐2,5‐diphenyltetrazolium bromide (MTT) assay. In this evaluation, the activity was expressed in IC50 (concentration inhibiting the parasite growth by 50%). […] The CC50 was defined as the concentration of selenoesters that led to a reduction in the viability of the macrophages, such that only 50% of the cells survived when compared to the control group. This cell line, derived from the blood of a human with acute monocytic leukemia, was chosen as it has been widely reported that it resembles tissue macrophages to various extents as well as supports the infection by numerous Leishmania promastigotes. The selectivity indexes (SIs) were calculated as the ratio between toxicity on macrophages (THP‐1 cells)/antileishmanial activity. The data for standard control drugs (miltefosine and paromomycin) are included for comparison purposes.
The promastigotes of L. major (clone VI, MHOM/IL/80/Friendlin) and L. infantum (BCN‐150) were grown at 26°C under continuous shaking in M199 1× medium (Sigma, USA). This media was supplemented with 10% of heat‐inactivated fetal bovine serum (FBS) (Gibco, USA), 0.0005% (w/v) hemin, 0.1 mM adenine, 25 mM HEPES (pH 7.2), 0.0001% (w/v) biotin, and 100 UI/mL penicillin and […] streptomycin (Gibco, USA).
The antileishmanial activity of the reported selenoesters was determined using the MTT assay as previously described during the logarithmic growth phase of the tested promastigotes of L. major and L. infantum. Briefly, the Leishmania parasites were seeded into 96‐well flat‐bottom plates (3 × 10^5 parasites/100 µL) and treated with four different concentrations ranging between 1 and 100 µM of each selenoester at 26°C for 48 h. Afterwards, 20 µL of MTT (5 mg/mL in PBS) was added to each well and incubated for 4 h under the same conditions. Then, 80 µL/well of DMSO was added to dissolve the resultant formazan crystals. The absorbances were determined on a Multiskan EX photometric plate reader for microplates at 540 nm. Three independent experiments performed in triplicate were carried out for each compound, and OriginPro 8.5.1 Software was used to calculate the IC50 values by fitting the data to a dose–inhibition sigmoid curve.

Ovarian subpanel [6] = experiment: NCI-60 five-dose assay, ovarian subpanel; format: cell-based; details: Homo sapiens, 48 h; for GI50: read-out: Mean GI50 Ovarian; for LC50 (50% lethal concentration): read-out: Mean LC50 Ovarian
Experimental: as §1, §2

Leukemia subpanel = experiment: NCI-60 five-dose assay, leukemia subpanel; format: cell-based; details: Homo sapiens, 48 h; for GI50: read-out: Mean GI50 Leukemia; for CC50: read-out: Mean LC50 Leukemia
Experimental: as §1, §2

[7] = Leishmania infantum, 48 h, mean ± SD, read-out: L. infantum IC50
[8] = 48 h, mean ± SD, read-out: L. infantum IC50
[9] = read-out: L. infantum IC50, 48 h, mean ± SD

Row | SMILES | GI50 (Colon subpanel) [µM] | CC50 (Colon subpanel) [µM] | average growth cell value, Renal (Renal subpanel [1]) [%] | average growth cell value, Ovarian (Ovarian subpanel [2]) [%] | IC50 (HaCaT cells; Homo sapiens, HaCaT) [µM] | average growth cell value, Breast (Breast subpanel) [%] | average growth cell value, NSCL [3] [%] | behaviour in OVCAR‐5 (OVCAR‐5) | GI50 (Renal subpanel [4]) [µM] | LC50 (Renal subpanel [4]) [µM] | average growth cell value, CNS (CNS subpanel) [%] | IC50 [5, 7] [µM] | GI50 (Ovarian subpanel [6]) [µM] | LC50 (50% lethal concentration) (Ovarian subpanel [6]) [µM] | GI50 (Leukemia subpanel) [µM] | CC50 (Leukemia subpanel) [µM] | IC50 [5, 8] [µM] | IC50 [5, 9] [µM] | IC50 (HaCaT cells) [µM]
1 | N#Cc1ccc(NC(=O)C[Se]C(=O)c2ccccc2)cc1C(F)(F)F [Compound 1, Se‐(2‐((4‐cyano‐3‐(trifluoromethyl)phenyl)amino)‐2‐oxoethyl)benzoselenoate] | 1.98 | 6.79 | -95.41 | -92.77 | 11.8 ± 1.89 | -86.92 | -96.68 | cytotoxic activity | 1.57 | 6.11 | -94.57 | 29.2 ± 2.65 | 1.77 | 6.4 | 1.01 | 4.36 | – | – | –
2 | O=C(C[Se]C(=O)c1ccco1)Nc1ccc([N+](=O)[O-])c(C(F)(F)F)c1 [Compound 5, Se‐(2‐((4‐nitro‐3‐(trifluoromethyl)phenyl)amino)‐2‐oxoethyl)furan‐2‐carboselenoate] | 2.58 | 46.5 | -39.51 | -38.57 | – | -28.95 | -42.46 | cytotoxic activity | 2.2 | – | -59.61 | 32.9 ± 8.25 | 2.28 | – | 2.51 | > 100 | – | – | –
3 | O=C(C[Se]C(=O)c1ccccc1)Nc1ccc([N+](=O)[O-])c(C(F)(F)F)c1 [Compound 2, Se‐(2‐((4‐nitro‐3‐(trifluoromethyl)phenyl)amino)‐2‐oxoethyl)benzoselenoate] | 2.11 | 7.68 | -96.22 | -92.98 | 9.49 ± 0.42 | -83.18 | -96.34 | cytotoxic activity | 1.38 | 5.2 | -94.42 | 29.4 ± 2.1 | 1.57 | 5.83 | 0.9 | 4.34 | – | – | –
4 | O=C(C[Se]C(=O)c1ccco1)Nc1cccc(OC(F)(F)F)c1 [Compound 6, Se‐(2‐oxo‐2‐((3‐(trifluoromethoxy)phenyl)amino)ethyl)furan‐2‐carboselenoate] | 7.93 | 67.3 | -17.86 | 5.95 | – | -10.87 | -12.41 | cytostatic behavior | 5.62 | – | -34.28 | 6 to 10 | 8.37 | – | 6.45 | > 100 | 5.99 ± 2.33 | < 10 | –
5 | O=C(C[Se]C(=O)c1ccccc1)Nc1cccc(OC(F)(F)F)c1 [Compound 3, Se‐(2‐oxo‐2‐((3‐(trifluoromethoxy)phenyl)amino)ethyl)benzoselenoate] | 8.52 | 43.9 | -61.17 | -50.78 | ~64 | -45.08 | -57.44 | cytostatic behavior | 2.33 | 15.4 | -78.56 | 6 to 10 | 2.45 | 18.2 | 3.06 | 19.6 | 6.59 ± 3.73 | < 10 | 63.7 ± 4.32
